Test results from patent publication US6001880A, “Alkylenediamine derivative, anti-ulcer drug, and antibacterial drug” (Shiseido Co., Ltd., priority 1997, dated 1999).

Experiments:
mice = tested on: mice; parameters: species or system mouse (male Slc:ICR); details: mouse, in vivo
Description: AT: Single Dose Toxicity Pretest
Male Slc:ICR mice (5-week-old) were used. Each group has 3 to 5 mice and each mouse was fasted, but allowed free access to water, for 4 to 5 hours from 9 a.m. in the test day. Then, 2,000 mg/10 ml/kg of the sample compound dissolved or suspended in an aqueous solution of 0.5% sodium carboxymethyl cellulose was orally administered thereto. To a control, only the vehicle was administered. […] The body weight was measured before and after the fasting as well as at the same time everyday. The dead animals were immediately subjected to autopsy and their organs were observed by naked eyes. Also, the living animals were sacrificed with ether or carbon dioxide one week after the administration and then their organs were observed by naked eyes.
The toxicity at the single dose of 2,000 mg/kg of the sample compound was expressed as being classified into 5 levels.
5: mortality rate is 0%; no toxicity is found at all both in behavior and organs.
4: Mortality rate is 0%; while no toxicity is found in organs, slight toxicity is observed in behavior or body weight increase.
3: While there is a dead animal (though not all the animals are dead), no toxicity is found in organs.
2: Regardless of whether there is a dead animal or not, toxicity is found in organs.
1: All the animals are dead.

[1] = tested on: Helicobacter pyroli (HP NCTC 11637); experiment: AHP: Antibacterial Activity Test Against Helicobacter pyroli (agar dilution); format: cell-based, Helicobacter pyroli NCTC 11637; details: MIC 100 μg/ml or more; colony number vs control plate, 250 mM solution of sample compound
Description: AHP: Antibacterial Activity Test Against Helicobacter pyroli The minimum inhibitory concentration (MIC) against Helicobacter pyroli (microacrophilic gram-negative bacterium which is supposed to deeply involve in pathogenesis, relapse, and recrudescence of ulcer, referred to as "HP" in the following) is measured so as to find out compounds which have antibacterial activity against Helicobacter pyroli. MICs were determined by the agar dilution method. The stock culture (-80° C.) of HP NCTC 11637 was thawed and cultured on tripticase soy agar supplemented with 5% sheep blood at 37° C. in an atmosphere of 5% O2, 10% CO2, and 85% N2. Grown colonies were transferred to the same plate and precultured for 3 days under the same condition. […] An appropriate amount of the colony grown on the plate by preculturing was suspended in Mueller Hinton broth till turbidness was recognizable by naked eyes, thereby yielding a bacterial suspension concentrate containing about 10^7 cfu/ml. […] 10 μl of the bacterial suspension for inoculation (about 10^3 cfu) was dropped by dispenser onto an MIC plate for inoculation and cultured for 7 days under the same condition as that of preculture. Thereafter, it was judged whether there had been bacteria growth or not. […] As the result of the comparison of these plates, when the number of the colony on the plate containing the sample compound was less than 90% with respect to that on the control plate, it was represented by "+". Contrary to this, when there was 90% or more, it was represented by "-".

[2] = tested on: isolated gastric fundic gland; experiment: CAP: Acid Secretion Inhibition Test In Vitro ([14C]-aminopyrine uptake); format: cell-based, rabbit (male Japanese White); details: Oryctolagus cuniculus; final concentration 10^-5 M; histamine 10^-5 M stimulation; read-out: CAP: acid secretion inhibitory rate
Description: CAP: Acid Secretion Inhibition Test In Vitro
The acid secretion inhibitory activity in a cell level is studied. It can also be used for studying the mechanism of the effect.
First, an isolated gastric fundic gland sample was prepared. Namely, a male Japanese White rabbit (2.5 to 3 kg) was anesthetized to death with Nembutal™ and then the abdomen was incised. Immediately thereafter, the stomach was removed and, after its pyloric and cardiac antrum were severed, incised along its greater curvature into two sheets. The gastric contents adhering to the mucosal surface was washed out with ice-cooled PBS (-) and then carefully washed therein. The gastric wall was spread on a cork board with its mucosal surface facing up and the feed and mucus thereon were completely removed with sterile gauze. The mucosa was separated therefrom by a spatula and then collected in ice-cooled PBS (-). After being washed twice with PBS (-), the mucosa was minced into 2-3 mm^3 pieces by scissors. These pieces were further washed twice with a nutrient solution. The nutrient solution comprises 132.4 mM of NaCl, 5.4 mM of KCl, 5 mM of Na2 HPO4. 12H2 O, 1 mM of NaH2 PO4.2H2 O, 1.2 mM of MgSO4, 1 mM of CaCl2, 25 mM of HEPES, 2 mg/ml of glucose, and 1 mg/ml of BSA.
Into 70 ml of the nutrient solution containing 1 mg/ml of collagenase, minced mucosal pieces were dispersed and intensely stirred in a conical flask with a stirrer at 37° C. for 40 to 60 minutes. During this period, 100% O2 was sprayed on the nutrient solution surface and the pH was appropriately measured such that it was immediately adjusted to pH 7.4, when the value was therebelow, with a base. The nutrient solution was added to the reaction solution so as to attain the total amount of about 200 ml. After being filtered through a mesh, the suspension was divisionally introduced into 50 ml centrifuge tubes and left for 15 minutes such that gastric fundic gland was deposited. The supernatant was repeatedly removed by an aspirator, dispersed in the nutrient solution, and then left such that the gastric fundic gland was washed three times. At this time, without using a pipette, the suspension was alternately introduced into two centrifuge tubes so as to effect dispersion. The number of cells was counted under microscope and adjusted to 1.6×10^6 cells/ml.
Then, [^14 C]-aminopyrine uptake test was performed. After an Eppendorf tube was weighed, 10 μl (final concentration: 10^-5 M) of histamine dissolved in the above-mentioned nutrient solution, 10 μl (final concentration: […]) of the test compound dissolved in DMSO, and 10 μl (final concentration: 0.05 μCi/ml) of [^14 C]-aminopyrine diluted with the nutrient solution were introduced therein and then 970 μl of the isolated gastric fundic gland suspension prepared above was added thereto. Subsequently, this mixture was shaken at 37° C. for 40 minutes at 125 cycles/minute. After being centrifuged for 30 seconds, 200 μl of its supernatant was collected into a mini-vial, while the rest was removed by an aspirator. The gland pellet was completely dried as the tube with its lid being opened was kept for one night in a drying oven at 80° C. and then the lid was closed and the weight was determined at room temperature. Then 100 μl of 1N KOH was added thereto and the tube with its lid being closed was treated at 60° C. for 1 to 2 hours so as to dissolve the pellet. Then, the contents thereof were transferred to a mini-vial. Into the mini-vial containing the supernatant or gland pellet, 4 ml of Atomlite™ was added and then the radioactivity was measured by a liquid scintillation counter. Here, after the radioactivity of the gland pellet was corrected by using a sample in which 20 mM of NaSCN was added so as to cancel the hydrogen ion concentration gradient, the integration ratio of aminopyrine specifically trapped by the gland pellet was calculated. This experiment was performed in duplicate.
Here, its principle will be briefly explained. […]

[3] = tested on: stress ulcer formation in rats; experiment: WIS: Restraint and Water Immersion Stress-Induced Ulcer Inhibition Test; format: in vivo, rat (male Crj:SD or Slc:SD); details: 100 mg/kg oral, 10 minutes before 7 h restraint and water immersion (21° C.)
Description: WIS: Restraint and Water Immersion Stress-Induced Ulcer Inhibition Test
The degree of inhibition of the stress ulcer formation is tested.
Male Crj:SD or Slc:SD rats (6 to 7-week-old) were fasted overnight, but allowed free access to water. Each group has 5 to 8 of these rats. The sample compound was dissolved or suspended in an aqueous solution of 0.3% sodium carboxymethylcellulose or 0.05% Tween 80 and then was orally administered (100 mg/10 ml/kg). To a control group, the vehicle was administered. 10 minutes later, the rats were placed in a stress cage and immersed to the level of xipfoid process in a water bath (21° C.) for 7 hours. At the end of the stress, the rats were sacrificed by inhalation of ether or carbon dioxide. Then, the stomach of each was removed, inflated by injecting 10 ml of 5% formalin neutral buffer solution, and immersed in 1% formalin neutral buffer solution for 30 minutes or more to be fixed. The stomach was incised along the greater curvature and then the length of each erosion in the glandular portion was determined under dissecting microscope. The sum of the length of erosions per stomach was defined as ulcer index (UI).
The effect obtained when 100 mg/kg of the sample compound had been administered was expressed as ulcer formation inhibitory rate (%) as follows:
ulcer formation inhibitory rate (%)=(1-(UI in sample group/UI in control

[4] = MTT: Cell Damaging and Protecting Effect Test; format: cell-based, rabbit (male Japanese White); details: rabbit, gastric corpus mucosa cells, final concentration 10^-4 M, smaller value is better, read-out: MTT: cell damaging rate
Source text: MTT: Cell Damaging and Protecting Effect Test
It is confirmed that there is no toxicity in cell level. Those having a toxicity in cell level are inappropriate as an anti-ulcer drug.
A male Japanese White rabbit (2.5 to 3 kg) was anesthetized to death by Nembutal™ and, immediately thereafter, its stomach was removed. The greater curvature of the stomach was incised so as to remove the stomach contents therefrom. After the mucosal surface was washed with HBSS (Hanks' Balanced Salt Solution), the stomach in ice-cooled HBSS was transferred to a laboratory. Then, after the pyloric antrum was removed, the gastric corpus mucosa was separated by a spatula and then minced into 2 to 3 mm^3 pieces in BME (Basal Medium Eagle). Thereafter, these pieces were shaken at 120 to 130 cycles/minute for 15 minutes at 37° C. in BME 60 ml containing 280 U/ml of dispase and 30 to 50 U/ml of collagenase. Here, the concentration of collagenase was appropriately changed for each lot in view of the state of cells. The pieces were washed twice with EBSS (Earle's Balanced Salt Solution) containing 1 mM of EDTA and then shaken in MEM (Minimum Essential Medium) containing 1 mM of EDTA at 37° C. for 5 minutes. Subsequently, they were shaken in the dispase and collagenase having the same concentrations as those mentioned above for 15 minutes so as to remove the supernatant and then further shaken at 37° C. for 50 to 60 minutes at 120 to 130 cycles/minute. Then, after being washed twice with HBSS, Ham F12 containing 2% of Ultrocer G™ was used to attain the concentration of 1×10^6 cells/ml. Thus formed suspension was dispensed in each well of a 96-well plate by 200 μl. The plate was incubated in the atmosphere composed of 5% CO2 and 95% air at 37° C. for three days so as to attain a confluent state and then subjected to MTT assay.
The sample compound was dissolved in DMSO so as to attain a concentration of 10^-2 M and then diluted with HBSS containing 2% of Ultrocer G™ so as to attain a final concentration of 10^-4 M. To each group, which 8 wells were used for, 10 μl of MTT reagent was added immediately after 100 μl of the medium in each well was exchanged for same volume of the resulting solution of the sample compound. After being incubated in an atmosphere composed of 5% CO2 and 95% air at 37° C. for 4 hours, thus formed solution was centrifuged and then its supernatant was discarded. Subsequently, 100 μl of 100% ethanol was added to the residue so as to dissolve MTT formazan. Then, the absorbance (OD: 570 to 630) was measured by a microplate reader. This method utilizes a phenomenon in which MTT is changed to MTT formazan only by mitochondria of living cells so as to change color.
The cell damaging or cell protecting effect of the sample compound at the final concentration of 10^-4 M was expressed as cell damaging rate (%) as follows:
cell damaging rate (%)=(1-(absorbance in sample group/absorbance in control
Accordingly, the smaller value is better in the cell damaging rate.

Row | SMILES | AT: single dose toxicity level (mice) | AHP: growth class where MIC was 100 μg/ml or more [1] | inhibition at 10 µM [2] [%] | WIS: ulcer formation inhibitory rate [3] [%] | cytotoxicity at 4 h, 100 µM [4] [%]
1 | CC(C)=CCC/C(C)=C/COc1ccc(C(=O)NCCN(C(C)C)C(C)C)cc1 [Example 7] | 5 | + (the number of the colony on the plate containing the sample compound was less than 90% with respect to that on the control plate) | 100 | 84 | –
2 | CCN(CC)CCNC(=O)c1ccc(OCC=C(C)C)nc1 [Example 46] | 3 | – | – | 65 | -3
3 | CCN(CC)CCNC(=O)c1ccc(OC/C=C(\C)CCC=C(C)C)c(OC)c1 [Example 30] | 5 | – | 100 | 84 | –
4 | CCN(CC)CCNC(=O)c1cc(OC)c(OC)c(OC/C=C(\C)CCC=C(C)C)c1 [Example 39] | 4 | – | – | 87 | –
5 | CC(C)=CCOc1ccc(C(=O)NCCN(C(C)C)C(C)C)cn1 [Example 48] | 3 | – | – | 75 | -13
6 | CCN(CC)CCNC(=O)c1ccccc1SC/C=C(\C)CCC=C(C)C [Example 25] | – | – | 96.1 | 82 | 19
7 | CC(C)c1ccc(C(=O)NCCN(C(C)C)C(C)C)cc1 [Example 64] | – | – | 72.7 | 82 | 39
